Experimental data from patent publication US8269005B2 (Sunovion Pharmaceuticals Inc., priority 2007, dated 2012).

Key:
[1] = Aqueous solubility (24 hour equilibrated suspension in water, HPLC); assay type: physicochemical; details: for pH measured at saturation: saturated suspension in water
Description: The aliquot was diluted and analyzed by HPLC (Waters). The data was compared to a standard curve generated from a set of solutions of known concentrations. The standard curve and the samples were analyzed using a HPLC using the following conditions: […]

[2] = Tablet dissolution over time in media of various pH; assay type: physicochemical; details: for Dependence of dissolution on pH of the medium: oral dosage form, pH 1 to 6.8 and deionized water; for Fraction of tablet dissolved / Dissolution: tablet
Description: The dissolution media used were (a) pH 1 (0.1N HCl) 50 ml of cone HCl mixed in 6 L of water; (b) pH 4.5 acetate buffer (20 mM) […] of sodium acetate trihydrate dissolved in 6 L of water, pH adjusted to 4.5 with acetic acid; (c) pH 5.5 phosphate buffer (20 mM) 16.3 g of potassium dihydrogen phosphate in 6 L of water. pH adjusted to 5.5 with NaOH; (d) pH 6.8 phosphate buffer (20 mM) 16.3 g of potassium dihydrogen phosphate in 6 L of water. pH adjusted 6.8 with NaOH. A standard dissolution protocol was used. The standard solution (0.006 mg/mL of eszopiclone free base) was prepared by weighing a known amount (˜20 mg) of the free base into a 100 mL volumetric flask. 10 mL of acetonitrile was added into the flask and sonicated until the solids dissolved completely. The solution was cooled to room temperature and made up to the 100 mL mark using media and mixed well. Dilute 3 mL to 100 mL using media. The tables were prepared by transferring 500 mL dissolution media into the 6 vessels. Blank readings were taken for all the probes using media. Standards were read for individual vessels. Probes were washed with media and then inserted back into each vessel. One tablet was transferred into each vessel. The dissolution program was started immediately and readings were taken at 305 nm for 60 min (every 1 min for 20 min and then every 10 min).
FIG. 1 depicts dissolution profiles of the eszopiclone free base at pH 1 (0.1N HCl), pH 4.5 in buffer, pH 5.5 in buffer, pH 6.8 in buffer and in deionized water. […] It can be seen that the dissolution is greater than 50% within five minutes and greater than 80% at one hour at all pH.

Compound	pH measured at saturation [1]	Solubility ([1]; water, ambient, equilibrated 24 hour)	Dependence of dissolution on pH of the medium ([2]; listed as eszopiclone free base)	Fraction of tablet dissolved ([2]; deionized water, at one hour)	Dissolution ([2]; pH 1 (0.1N HCl))	Fraction of tablet dissolved ([2]; pH 6.8 buffer, at one hour)	Dependence of dissolution on pH of the medium ([2]; listed as L-malate salt)	Dissolution ([2]; at one hour, all pH (pH 1, 4.5, 5.5, 6.8, deionized water))	Dissolution ([2]; within five minutes, all pH (pH 1, 4.5, 5.5, 6.8, deionized water))
CN1CCN(C(=O)O[C@H]2c3nccnc3C(=O)N2c2ccc(Cl)cn2)CC1 [Free base, [(9S)-8-(5-chloropyridin-2-yl)-7-oxo-2,5,8-triazabicyclo[4.3.0]nona-1,3,5-trien-9-yl]-4-methyl piperazine-1-carboxylate]	7.6	0.2^1 mgA/mL	decreases markedly as the pH rises	less than one half	rapid and complete	less than one half	–	–	–
CN1CCN(C(=O)O[C@H]2c3nccnc3C(=O)N2c2ccc(Cl)cn2)CC1 [L-malate, (S)-Zopiclone L-Malate]	3.9	–	–	–	–	–	dissolve quickly and at substantially the same rate, regardless of the pH of the dissolving medium	greater than 80%	greater than 50%
